Assay results reported in patent US6969590B2, “Use of a polypeptide for treatment of pruritus in animals” (Zengen, Inc., priority 2001, dated 2005).

How the values were obtained:
[1] = tested on: carrageenan-induced swelling in rat paws; experiment: Rat paw edema test; format: in vivo, Sprague-Dawley rats
Method: A second in vivo bioassay for anti-inflammatory activity was conducted in which the action of the tripeptide was compared to that of hydrocortisone. In this assay, the two agents were given at similar doses and tested for their independent ability to inhibit carrageenan-induced swelling in rat paws. This assay, the rat paw edema test, was conducted generally as it is typically performed in the art, for example, as described by Winter et al. (1962), Proc. Soc. Exp. Biol. Med., 111:544 or in U.S. Pat. No. 4,150,137. Briefly, the assay was performed as follows. Each of twenty-four male Sprague-Dawley rats was assigned to one of four groups: Tripeptide treatment and controls (matched according to body weight and initial paw volume), hydrocortisone treatment and matched controls. The volume of the right rear paw of the test and control animals was determined using standard procedures and a mercury displacement volumetric technique. […] One hour later 0.5 ml of 1% lambda carrageenan in saline solution was injected into the right rear paw of the animals and the paw volume was again recorded (baseline measure). For comparison of the effects of the two treatments, paw volume of experimental animals measured at hourly intervals was expressed as a percentage of the volume change of their respective matched controls.

TNF-α = TNF-α production by activated N9 microglia; format: cell-based, murine; conditions: microglia stimulated with LPS+IFN-γ for 24 hr, micromolar concentrations
Method: (§1) The N9 clone of murine microglial cells was obtained by immortalization of embryonic brain cultures with the 3RV retrovirus carrying an activated v-myconcogene. N9 cells were cultured in T-75-cm^2 culture flasks (Corning, Cambridge, Mass.) and maintained at 37° C. in a humidified incubator under 5% CO2 atmosphere in RPMI 1640 supplemented with 2 mM L-glutamine, 50 U/mL penicillin G, 50 μg/mL streptomycin sulfate (GIBCO-BBL, Paisley, UK), and 10% heat-inactivated fetal bovine serum (FBS, Hyclone Lab, Inc., Logan, Utah) until experiments were performed. Cells were used between the first and the tenth passage.
(§2) Sub-confluent microglial cells were washed twice with phosphate-buffered saline (PBS) and incubated with trypsin 0.025% and ethylenediaminetetraacetate (EDTA) 0.02% without calcium and magnesium for 3 min. at 37° C. to detach the cells from the culture flask. Cells were then resuspended in medium and incubated in 24-well tissue-culture plates at a concentration of 2×10^5 cells/mL for 16 h in a humidified incubator (37° C., 5% CO2). Growth medium was removed and cell monolayers were stimulated with 10 ng/mL lipopolysaccharide (LPS, from Escherichia coli 055:B5, Sigma Chemical Co., St. Louis, Mo.) plus 1 U/ml, murine IFN-γ (Sigma). To test effects of melanocortin peptides, concentrations (1, 10, 25, 50 and 100 μM) of α-MSH (1-13), α-MSH (11-13), and ACTH (1-24) (Sigma) were dissolved in medium and added to wells 10 min before treatment with LPS+IFN-γ. […] Viability of cells was assessed by trypan blue exclusion for each experimental condition; it was consistently >98%. […]
(§3) TNF-α bioactivity was measured in supernatants of cell cultures by standard cytotoxicity assay using L929 cells and recombinant human TNF-α (Sigma) as standard. […] IL-6 was measured using a commercial murine enzyme-linked immunosorbent assay (ELISA: RPN 2714, Amersham, Little Chalfont, UK).
(§4) Effects of melanocortin peptides on cytokine and NO production were evaluated by repeated measures analysis of variance followed by Dunnet's test for specific comparisons. […]

TNF-α and iNOS mRNA = experiment: Northern blot of TNF-α and iNOS mRNA in activated microglia; format: cell-based, murine
Method: Total cellular RNA was extracted from 10^6 adherent microglial cells plated in six-well tissue culture plates (Corning). Electrophoresis of RNA samples (10 μg/lane) was performed in 1% agarose/2.2 M formaldehyde gels and the gels subsequently blotted onto nylon filters by capillary action and baked for 2 h before prehybridization. The cDNA fragments encoding murine TNF-α and mouse macrophage iNOS were ^32P-labeled using the Ready-To-Go DNA Labeling Kit (Pharmacia, Uppsala, Sweden) before hybridization of nylon filters and autoradiography. Blots were subsequently rehybridized with human glyceraldehyde-3-phosphate dehydrogenase (G-3-PDH) cDNA probe as an internal control (Clontech Laboratories, Inc., Palo Alto, Calif.).

NO2^− = experiment: Nitrite (NO) production by activated N9 microglia; format: cell-based, murine; conditions: microglia stimulated with LPS+IFN-γ for 24 hr, micromolar concentrations
Method: as §1, §2
NO is rapidly oxidized to nitrite (NO2) in culture medium, and nitrite concentration is an indicator of NO production. […] Samples were incubated at room temperature for 10 min and absorbency was measured at 540 nm with the use of a microplate reader. Nitrite concentrations were calculated using a sodium nitrite standard curve.
as §4

IL-6 = IL-6 production by activated N9 microglia; format: cell-based, murine; conditions: microglia stimulated with LPS+IFN-γ for 24 hr, micromolar concentrations
Method: as §1, §2, §3, §4

[2] = tested on: inflammation induced in the hind paw; experiment: Kappa carrageenan-induced hind paw inflammation, spinal cord intact or transected; format: in vivo, BALB/c mice; conditions: given intraperitoneally, spinal cord transection
Method: Because surgical dissection of trigeminal structures that innervate the ear of the mouse is very difficult, tests to learn whether descending neural pathways are essential to the anti-inflammatory activity of centrally administered α-MSH peptides were performed in mice with inflammation induced in a hind paw. In these experiments, each animal was anesthetized with pentobarbital sodium solution as above. Baseline footpad thickness of both hind paws was measured with a spring-loaded micrometer (Swiss Precision Instruments, Los Angeles, Calif.). Paw thickness was expressed in units of 10^−3 cm; average thickness of unstimulated paws was 171.5×10^−3 cm across shipments of animals. Kappa carrageenan (Sigma) dissolved in saline (0.05%, 20 μl) was injected (28 gauge allergy test syringe) into one footpad, and saline (20 μl) was injected into the other. For the analyses, the increase in thickness of the control saline-injected paw of each animal was subtracted from that of the carrageenan-injected paw, to eliminate the influence of mechanical injury and volume of the injected fluid. To be certain that mice with severed spinal cords can react to anti-inflammatory agents, prednisolone (2.5 mg/mouse (IP injection)) was administered to 10 mice with spinal transection and inflammation induced by carrageenan. Treatment with the locally acting steroid reduced swelling up to 29% (average, relative to saline controls) at 4.5 h. after carrageenan.
However, a standardized crushing of lumbar vertebrae with a hemostat was effective in severing the cord; no deaths were caused by this treatment. […] The experiments were limited to 4.5 h to reduce problems of bowel and bladder dysfunction. Immediately after the 4.5 h measurements all mice were killed with an overdose of sodium pentobarbital.
Because of the size of the experiments and the requirement for several shipments of animals over time, several experiments were performed, each with complete treatment and control groups drawn from the same shipment of mice. Omnibus analysis of variance techniques (Dynastat, Washington, D.C.) were used to test overall differences among group means. Tukey's protected t test was used to compare individual means. Probability values of <0.05 were considered significant.

[3] = tested on: inflammation induced in the ear by picryl chloride; experiment: Picryl chloride-induced ear swelling; format: in vivo, BALB/C mice
Method: Female BALB/C mice (Simmons Laboratories), 7 weeks old, were housed at 23-25° C. in groups of no more than 5 per cage [28 cm (L)×18 cm (W)×13 cm (H)]. They were allowed to acclimatize to standard lighting and temperature conditions for at least 1 week, with food and water available ad lib, before the experiment began. Five to ten animals were randomly assigned to each treatment group each test day, and all experiments were repeated at least twice to confirm reproducibility. To reduce error due to slight differences in responses to the irritant of animals from different shipments, tests of each agent were performed as separate experiments in which experimental and control animals were drawn from the same shipment.
In the experiments each animal was anesthetized with 1 mg of pentobarbital sodium solution (50 mg/kg, Nembutal, Abbott Laboratories, Abbott park, Ill.). Baseline ear thickness was measured for both ears with a spring-loaded micrometer (Swiss Precision Instruments, Los Angeles, Calif.). Ear thickness was expressed in units of 10^−3 cm; the average thickness of unstimulated ears was approximately 25-30×10^−3 cm. After baseline measurements were taken, one of six solutions was injected IP. Control animals received 0.2 ml of sterile saline, and experimental animals received Ac-α-MSH (11-13)-NH2, i.e., Ac-Lys-Pro-Val-NH2), Ac[D-Lys^11] α-MSH (11-13)-NH2, Ac[D-Pro^12] α-MSH (11-13)-NH2, Ac[D-Val^13] α-MSH (11-13)-NH2 or Ac-[D-Lys^11, D-Val^13] α-MSH (11-13)-NH2 in the same volume of saline. […] The doses of the tripeptides were 10 μg ([…]), 20 μg ([…]), 40 μg (1.04×10^−7 M), and 80 μg (2.08×10^−7 M). Immediately after saline or α-MSH injection, a micropipette was used to coat both sides of each ear with 10 μl (40 μl per mouse) of a 0.5% picryl chloride (Polysciences, Warrington, Pa.) solution in acetone.
Ear thickness was remeasured 3 and 6 h after picryl chloride application. Swelling was determined by subtracting baseline thickness from the measurements for each ear at 3 and 6 h. The differences for both ears were then averaged for the final analysis.
Repeated-measure ANOVA techniques were used to determine if there was an overall difference among group data for each peptide tested in separate experiments. In those cases in which the ANOVA yielded significant results, Dunnett's test was then used to compare the effects of peptide doses with control (saline) data for each of the two time periods, 3 and 6 h.

[4] = tested on: histamine-induced blue weal formation; experiment: Sparrow/Wilhelm assay: histamine-induced blue wheals; format: in vivo, New Zealand white rabbits; conditions: for relative intensity of blue wheals, experimental vs control: scored 30 minutes after histamine
From the text: This model relies on the principal that localized, subcutaneous injections of histamine will result in a localized increase in capillary permeability. When the test animal has been pretreated with blue dye intravenously, the localized histamine injections will elicit blue-colored wheals around the injection site. Thus, by pre-administration of an effective anti-inflammatory agent the blue color of the histamine-induced wheals will be much less pronounced, with the amount of color reduction being dependent on the relative amount and/or potency of the anti-inflammatory agent used.
Non-molting New Zealand white rabbits were used for the Sparrow/Wilhelm assay. The skin of the rabbits back was closely clipped 1-2 days previous to the experiment, but not depilated, and the rabbits were kept warm until tested. Various amounts of the protected tripeptide Ac-Lys-Pro-Val-NH2 were injected intravenously into an ear vein approximately 15 minutes prior to intravenous injection of blue dye. Control rabbits received sham injections. Fifteen minutes following injection of the agent or sham, the rabbits received approximately 30 mg/kg of Pontamine blue dye as a 2.5% solution in 0.45% saline, into an exposed vein. Immediately following dye injections, histamine was injected intradermally in a 0.10 ml volume (1.25 mg histamine 0.1 ml volume) at several sites on each side of the spine. In all, one vertical row of six injections were made on each side of the spine. The relative intensity of the resultant blue wheals were scored by an independent observer 30 minutes after histamine injection.

## C[C@]12CCC(=O)C=C1CC[C@@H]1[C@@H]2[C@@H](O)C[C@@]2(C)[C@H]1CC[C@]2(O)C(=O)CO [hydrocortisone, reference compound]
[1]; 100 mg/kg intraperitoneal, first hour
  inhibition of paw swelling in the first hour: markedly inhibited swelling

## ACTH (1-24): melanocortin peptide ACTH (1-24) (SYSMEHFRWGKPVGKKRRPVKVYP; Corticotropin; UniProt P01189 138-161, looked up, fragment) [reference compound]
TNF-α
  reduction of production of TNF-α: 38%
TNF-α and iNOS mRNA
  mRNA for TNF-α and iNOS (Northern blot): inhibition of mRNA transaction for TNF-α and iNOS
NO2^−
  reduction of production of NO2^−: 41%
IL-6
  reduction of production of IL-6: 65%

## Ac-Lys-Pro-Val-NH2 [Ac-α-MSH(11-13)-NH2, protected tripeptide]
[2]
  anti-inflammatory effect after spinal cord transection: marked inhibitory effect on inflammation
[3]; 10 μg IP, 3 h
  % Inhibition of swelling: 26%
[3]; 10 μg IP, 6 h
  % Inhibition of swelling: 25%
[3]; 20 μg IP, 3 h
  % Inhibition of swelling: 21%
[3]; 20 μg IP, 6 h
  % Inhibition of swelling: 19%
[3]; 40 μg IP, 3 h
  % Inhibition of swelling: 33%
[3]; 40 μg IP, 6 h
  % Inhibition of swelling: 26%
[3]; 80 μg IP, 3 h
  % Inhibition of swelling: 50%
[3]; 80 μg IP, 6 h
  % Inhibition of swelling: 42%
[3]; 10-80 μg IP, 3 and 6 h
  overall effect on ear inflammation (ANOVA): inhibited acute inflammation
[4]; 0.625 ug/kg intravenously
  relative intensity of blue wheals, experimental vs control: No difference
[4]; 1.25 ug/kg intravenously
  relative intensity of blue wheals, experimental vs control: E lighter than C
[4]; 5 ug/kg intravenously
  relative intensity of blue wheals, experimental vs control: E lighter than C
[4]; 10 ug/kg intravenously
  relative intensity of blue wheals, experimental vs control: E lighter than C
[4]; intravenous
  lowest intravenous dose with appreciable reduction in blue weal formation: 1.25 ug tripeptide per kg body weight
[1]; 100 mg/kg intraperitoneal each, hourly, after the first hour
  inhibition of paw edema compared with hydrocortisone: no significant difference in the inhibition of paw edema
